Test results: patent publication US20260078130A1, “NAMPT MODULATORS, PREPARATIONS, AND USES THEREOF” (SIRONAX LTD., priority 2022, published 2026)
Where two headings read alike, the source gives them in different places.

Target: T1, human enzyme NAMPT (full length) (Homo sapiens, UniProt P43490)
T1 construct: human enzyme NAMPT (full length)
Test: NMN fluorescence biochemical assay (stimulation of NMN synthesis by NAMPT)
Conditions: for EC50: concentration giving half-maximal activation, read-out: Enzymatic EC50; for Enzymatic Emax: fold change of maximal activation compared to DMSO
In short: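 Full-length human NAMPT (100 nM) was preincubated 15 min at 37 °C with compound in 50 mM Tris-HCl pH 7.5, 10 mM MgCl2, 2 mM DTT, then reacted 1 h at 37 °C with 50 μM NAM, 100 μM PRPP, 4 mM ATP (stated solution concentrations). NMN was derivatised with acetophenone/KOH then formic acid and read at Ex/Em 382/445 nm; EC50 and Emax (fold over DMSO) reported.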

[1] = NMN synthesis by purified human NAMPT (100 nM)
[2] = NMN fluorescence assay, purified human NAMPT 100 nM

T1 sequence (P43490 whole entry): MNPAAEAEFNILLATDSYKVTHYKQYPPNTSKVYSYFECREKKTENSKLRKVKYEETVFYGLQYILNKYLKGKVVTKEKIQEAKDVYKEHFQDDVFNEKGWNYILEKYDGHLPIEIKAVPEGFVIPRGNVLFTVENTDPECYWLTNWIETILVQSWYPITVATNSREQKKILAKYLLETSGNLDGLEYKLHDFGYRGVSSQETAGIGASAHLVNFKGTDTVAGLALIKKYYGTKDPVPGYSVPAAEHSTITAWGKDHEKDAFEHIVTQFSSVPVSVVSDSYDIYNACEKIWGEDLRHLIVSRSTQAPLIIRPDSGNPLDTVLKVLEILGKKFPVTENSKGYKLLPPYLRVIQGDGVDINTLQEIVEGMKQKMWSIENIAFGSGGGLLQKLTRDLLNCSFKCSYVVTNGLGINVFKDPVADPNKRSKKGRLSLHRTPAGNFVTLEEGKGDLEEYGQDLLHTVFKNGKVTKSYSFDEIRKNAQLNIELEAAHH

| SMILES | EC50 [1] [µM] | Enzymatic Emax | EC50 [2] [µM] |
| --- | --- | --- | --- |
| O=C1c2ccccc2C(Cc2cc(Cl)ccn2)N1Cc1ccc2[nH]c(=O)oc2c1 (stereo not shown) [Compound 220, 6-((1-((4-chloropyridin-2-yl)methyl)-3-oxoisoindolin-2-yl)methyl)benzo[d]oxazol-2(3H)-one] | 0.5 to 5 | B (3≥B>2) |  |
| Cn1ncc(Cl)c1CC1c2cc(F)cc(F)c2C(=O)N1CC1CC2(CNC(=O)O2)C1 (stereo not shown) [Compound 496, 2-((1-((4-chloro-1-methyl-1H-pyrazol-5-yl)methyl)-4,6-difluoro-3-oxoisoindolin-2-yl)methyl)-5-oxa-7-azaspiro[3.4]octan-6-one] |  | B (3≥B>2) | < 0.5 |
| CN(C)c1ccc2c(c1)C(Cc1c(Cl)cnn1C)N(CC1CC3(CNC(=O)O3)C1)C2=O (stereo not shown) [Compound 498, 2-((3-((4-chloro-1-methyl-1H-pyrazol-5-yl)methyl)-5-(dimethylamino)-1-oxoisoindolin-2-yl)methyl)-5-oxa-7-azaspiro[3.4]octan-6-one] |  | B (3≥B>2) | < 0.5 |
| Cc1cccnc1C[C@@H]1c2ccccc2C(=O)N1Cc1ccc2[nH]c(=O)oc2c1 [Compound 177, (R)-6-((1-((3-methylpyridin-2-yl)methyl)-3-oxoisoindolin-2-yl)methyl)benzo[d]oxazol-2(3H)-one] | ≥ 5 | C (2≥C) |  |
| O=C1c2ccccc2C(Cc2ccc(Cl)cn2)N1Cc1ccc2[nH]c(=O)oc2c1 (stereo not shown) [Compound 196, 6-((1-((5-chloropyridin-2-yl)methyl)-3-oxoisoindolin-2-yl)methyl)benzo[d]oxazol-2(3H)-one] | 0.5 to 5 | B (3≥B>2) |  |
| O=C1c2ccccc2C(Cc2ncccc2Br)N1Cc1cnc2[nH]c(=O)oc2c1 (stereo not shown) [Compound 222, 6-((1-((3-bromopyridin-2-yl)methyl)-3-oxoisoindolin-2-yl)methyl)oxazolo[4,5-b]pyridin-2(3H)-one] | ≥ 5 | B (3≥B>2) |  |
| Cc1conc1CC1c2ccccc2C(=O)N1Cc1ccc2[nH]c(=O)oc2c1 (stereo not shown) [Compound 248, 6-((1-((4-methylisoxazol-3-yl)methyl)-3-oxoisoindolin-2-yl)methyl)benzo[d]oxazol-2(3H)-one] | 0.5 to 5 | A (A>3) |  |
| N#Cc1nccc(Cl)c1CC1c2cc(C3COC3)ccc2C(=O)N1Cc1ccc2[nH]c(=O)oc2c1 (stereo not shown) [Compound 285, 4-chloro-3-((6-(oxetan-3-yl)-3-oxo-2-((2-oxo-2,3-dihydrobenzo[d]oxazol-6-yl)methyl)isoindolin-1-yl)methyl)picolinonitrile] | < 0.5 | B (3≥B>2) |  |
| O=C1c2ccccc2C(CC2CCOCC2)N1Cc1ccc2[nH]c(=O)oc2c1 (stereo not shown) [Compound 226, 6-((1-oxo-3-((tetrahydro-2H-pyran-4-yl)methyl)isoindolin-2-yl)methyl)benzo[d]oxazol-2(3H)-one] | ≥ 5 | B (3≥B>2) |  |
| Cn1ncc(Cl)c1CC1c2cc(C3CNC3)ccc2C(=O)N1Cc1ccc2[nH]nnc2c1 (stereo not shown) [Compound 383, 2-((1H-benzo[d][1,2,3]triazol-5-yl)methyl)-5-(azetidin-3-yl)-3-((4-chloro-1-methyl-1H-pyrazol-5-yl)methyl)isoindolin-1-one] |  | B (3≥B>2) | < 0.5 |
| N#Cc1cccc(CC2c3ccccc3C(=O)N2Cc2ccc3[nH]c(=O)oc3c2)n1 (stereo not shown) [Compound 219, 6-((3-oxo-2-((2-oxo-2,3-dihydrobenzo[d]oxazol-6-yl)methyl)isoindolin-1-yl)methyl)picolinonitrile] | 0.5 to 5 | B (3≥B>2) |  |
| Cc1ncccc1CC1c2ccccc2C(=O)N1Cc1ccc2[nH]c(=O)oc2c1 (stereo not shown) [Compound 165, 6-((1-((2-methylpyridin-3-yl)methyl)-3-oxoisoindolin-2-yl)methyl)benzo[d]oxazol-2(3H)-one] | 0.5 to 5 | B (3≥B>2) |  |
| CN(C)c1ccc2c(c1)C(=O)N(Cc1ccc(O)cc1)C2 [Compound 305, 6-(dimethylamino)-2-(4-hydroxybenzyl) isoindolin-1-one] | ≥ 5 | C (2≥C) |  |
| O=C1c2ccccc2C(Cc2ncccc2Br)N1Cc1cc[nH]c(=O)c1 (stereo not shown) [Compound 266, 3-((3-bromopyridin-2-yl)methyl)-2-((2-oxo-1,2-dihydropyridin-4-yl)methyl)isoindolin-1-one] | ≥ 5 | A (A>3) |  |

Next, values leading:

| EC50 [1] [µM] | Enzymatic Emax | EC50 [2] [µM] | SMILES |
| --- | --- | --- | --- |
|  | C (2≥C) | ≥ 5 | Cn1ncc(Cl)c1CC1c2ccccc2C(=O)N1CC1CC2(C1)OC(=O)NC2=O (stereo not shown) [Compound 587, 2-((1-((4-chloro-1-methyl-1H-pyrazol-5-yl)methyl)-3-oxoisoindolin-2-yl)methyl)-5-oxa-7-azaspiro[3.4]octane-6,8-dione] |
| 0.5 to 5 | B (3≥B>2) |  | NC(=O)c1cccc(CC2c3ccccc3C(=O)N2Cc2ccc3[nH]c(=O)oc3c2)c1 (stereo not shown) [Compound 264, 3-((3-oxo-2-((2-oxo-2,3-dihydrobenzo[d]oxazol-6-yl)methyl)isoindolin-1-yl)methyl) benzamide] |
| 0.5 to 5 | A (A>3) |  | COc1ccc(CC2c3ccccc3C(=O)N2Cc2ccc3[nH]c(=O)oc3c2)cc1 (stereo not shown) [Compound 213, 6-((1-(4-methoxybenzyl)-3-oxoisoindolin-2-yl)methyl)benzo[d]oxazol-2(3H)-one] |
| ≥ 5 | B (3≥B>2) |  | CC1c2c(Br)cccc2C(=O)N1Cc1ccc2[nH]c(=O)oc2c1 (stereo not shown) [Compound 247, 6-((4-bromo-3-methyl-1-oxoisoindolin-2-yl)methyl)benzo[d]oxazol-2(3H)-one] |
| 0.5 to 5 | A (A>3) |  | Cc1ccnnc1CC1c2ccccc2C(=O)N1Cc1ccc2[nH]c(=O)oc2c1 (stereo not shown) [Compound 261, 6-((1-((4-methylpyridazin-3-yl)methyl)-3-oxoisoindolin-2-yl)methyl)benzo[d]oxazol-2(3H)-one] |
|  | B (3≥B>2) | ≥ 5 | COc1ccc(CN2C(Cc3c(Cl)cnn3C)c3ccccc3S2(=O)=O)cn1 (stereo not shown) [Compound 642, 3-((4-chloro-1-methyl-1H-pyrazol-5-yl)methyl)-2-((6-methoxypyridin-3-yl)methyl)-2,3-dihydrobenzo[d]isothiazole 1,1-dioxide] |
|  | C (2≥C) | 0.5 to 5 | Cn1ncc(Cl)c1CC1c2ccccc2C(=O)N1Cc1ccc(Br)cc1 (stereo not shown) [Compound 575, 2-(4-bromobenzyl)-3-((4-chloro-1-methyl-1H-pyrazol-5-yl)methyl)isoindolin-1-one] |
| 0.5 to 5 | A (A>3) |  | O=C1c2ccccc2C(Cc2ncccc2Br)N1Cc1ccc2[nH]cnc2c1 (stereo not shown) [Compound 268, 2-((1H-benzo[d]imidazol-5-yl)methyl)-3-((3-bromopyridin-2-yl)methyl)isoindolin-1-one] |
|  | B (3≥B>2) | ≥ 5 | Cn1ncc(Cl)c1CC1c2ccccc2C(=O)N1C[C@]1(F)C[C@]2(CNC(=O)O2)C1 (stereo partly shown) [Compound 507, (2s,4s)-2-((1-((4-chloro-1-methyl-1H-pyrazol-5-yl)methyl)-3-oxoisoindolin-2-yl)methyl)-2-fluoro-5-oxa-7-azaspiro[3.4]octan-6-one] |
|  | C (2≥C) | ≥ 5 | Cc1ccnc(C#N)c1CC1c2ccccc2C(=O)N1CC1CCc2[nH]nnc2C1 (stereo not shown) [Compound 454, 4-methyl-3-((3-oxo-2-((4,5,6,7-tetrahydro-1H-benzo[d][1,2,3]triazol-5-yl)methyl)isoindolin-1-yl)methyl)picolinonitrile] |
| ≥ 5 | C (2≥C) |  | N#Cc1cccc(F)c1C[C@@H]1c2ccccc2C(=O)N1Cc1ccc2[nH]c(=O)oc2c1 [Compound 171, (R)-3-fluoro-2-((3-oxo-2-((2-oxo-2,3-dihydrobenzo[d]oxazol-6-yl)methyl)isoindolin-1-yl)methyl)benzonitrile] |
|  | B (3≥B>2) | < 0.5 | Cn1nc(Cl)c(Cl)c1CC1c2ccccc2C(=O)N1C[C@H]1C[C@@]2(CNC(=O)O2)C1 (stereo partly shown) [Compound 499, (2s,4s)-2-((1-((3,4-dichloro-1-methyl-1H-pyrazol-5-yl)methyl)-3-oxoisoindolin-2-yl)methyl)-5-oxa-7-azaspiro[3.4]octan-6-one] |
|  | C (2≥C) | ≥ 5 | O=C1c2ccccc2C(Cc2ncccc2Br)N1[C@H]1C[C@H](c2c[nH]nn2)C1 (stereo partly shown) [Compound 403, 2-((1r,3r)-3-(1H-1,2,3-triazol-4-yl)cyclobutyl)-3-((3-bromopyridin-2-yl)methyl)isoindolin-1-one] |
| ≥ 5 | B (3≥B>2) |  | COC1CN(Cc2ccc3c(c2)[C@H](C)N(Cc2ccc4[nH]c(=O)oc4c2)C3=O)C1 (single isomer, unassigned) [Compound 185] |
|  | B (3≥B>2) | 0.5 to 5 | Cn1ncc(Cl)c1CC1c2cccc(Br)c2C(=O)N1CC1CC2(CNC(=O)O2)C1 (stereo not shown) [Compound 434, 2-((4-bromo-1-((4-chloro-1-methyl-1H-pyrazol-5-yl)methyl)-3-oxoisoindolin-2-yl)methyl)-5-oxa-7-azaspiro[3.4]octan-6-one] |
|  | B (3≥B>2) | 0.5 to 5 | COC(C)(C)c1ccc2c(c1)C(Cc1c(Cl)cnn1C)N(Cc1ccc3[nH]nnc3c1)C2=O (stereo not shown) [Compound 396, 2-((1H-benzo[d][1,2,3]triazol-5-yl)methyl)-3-((4-chloro-1-methyl-1H-pyrazol-5-yl)methyl)-5-(2-methoxypropan-2-yl)isoindolin-1-one] |
|  |  | 0.5 to 5 | Cn1ncc(Cl)c1CC1c2ccccc2C(=O)N1C[C@@H]1C[C@H]1c1c[nH]nn1 (relative stereo) [Compound 548, trans 2-((2-(1H-1,2,3-triazol-4-yl)cyclopropyl)methyl)-3-((4-chloro-1-methyl-1H-pyrazol-5-yl)methyl)isoindolin-1-one] |
